Test results reported in patent publication US20170107207A1, “AMINOPYRAZOLONE DERIVATIVE” (DAIICHI SANKYO COMPANY, LIMITED, priority 2014, published 2017).

Tests used:
TIP48/TIP49 complex = target: T1, TIP48/TIP49 complex (Homo sapiens, UniProt Q9Y230+Q9Y265); assay: ATPase assay of TIP48/TIP49 complex (ADP-Glo); format: biochemical; details: concentration at which the ATPase activity was inhibited by 50%
T1 construct: made in house; host or cells: E. coli
How it was run: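 Compound was tested over 10 four-fold concentrations, 200 μM down to 0.0007 μM at 2% DMSO, against E. coli-derived human rTIP48/rTIP49 for 1.5 h at room temperature, pH 7.5 with ATP. ATP hydrolysis was read as ADP-Glo luminescence, normalised to complex-only and no-complex wells, then fitted to dose-response curves.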

[1] = test system: human lymphoma cell line RAMOS cells; assay: Cell growth inhibition test using RAMOS cell, MTT assay; format: cell-based; details: 50% growth inhibition concentration
Protocol: A cell growth inhibition test was carried out by treating human lymphoma cell line RAMOS cells with a test compound for a given period and then counting the number of viable cells by MTT assay or CellTiter-Glo Luminescent Cell Viability Assay (manufactured by Promega Corp.; hereinafter, referred to as ATP assay).
RAMOS cells were suspended in a medium (RPMI1640 medium containing 10% fetal bovine serum). The cell suspension was inoculated at 5000 cells/150 μL/well to a 96-well multiwell plate. The test compound was dissolved in DMSO, and this solution was diluted with medium to prepare a sample solution (DMSO concentration: 1% or lower). Subsequently, test compound-free medium or the sample solution was added thereto at 50 μL/well. The MTT assay was carried out at the day of addition of the sample solution or the DMSO dilution to the cells and after culture at 37° C. for 3 days under 5% CO2 of the cells supplemented with the sample solution or the medium. The MTT assay was carried out as follows.
A 5 mg/mL solution of MTT (3-(4,5-dimethylthiazol-2-yl)-2,5-diphenyltetrazolium bromide, Sigma-Aldrich Corp., M-2128) was prepared using a phosphate buffered solution (Dulbecco's phosphate-buffered saline). This MTT solution was added at 20 μL/well to the plate. Then, the plate was incubated at 37° C. for 4 hours under 5% CO2. The plate was centrifuged at 1200 rpm for 5 minutes, and then, the culture supernatant was removed by suction using a dispenser. DMSO was added thereto at 150 μL/well to dissolve formed formazan. […] from each well was rendered uniform by the stirring of the plate using a plate mixer. The absorbance of each well was measured using a plate reader under conditions involving OD of 540 nm and reference of 660 nm.
The number of viable cells and absorbance (hereinafter, referred to as an OD value) have been confirmed to correlate with each other. Therefore, the rate of cell growth was calculated according to the following expression: Rate of cell growth (T/C %) of a test compound-supplemented well=100×[(B−C)/(A−C)] wherein A represents the OD value (final culture date) of a test compound-free well; B represents the OD value (final culture date) of a test compound-containing well; and C represents the OD value (day of cell inoculation) of a well at the start of contact of the cells with the test compound.
T/C % at each concentration of the test compound was determined. The concentration at which the test compound offered 50% growth rate was calculated as a 50% growth inhibition concentration (GI50) value from the growth rates at two points interpolating 50% and the concentrations, and is shown in Table 56.

T1 sequence (Q9Y230 whole entry): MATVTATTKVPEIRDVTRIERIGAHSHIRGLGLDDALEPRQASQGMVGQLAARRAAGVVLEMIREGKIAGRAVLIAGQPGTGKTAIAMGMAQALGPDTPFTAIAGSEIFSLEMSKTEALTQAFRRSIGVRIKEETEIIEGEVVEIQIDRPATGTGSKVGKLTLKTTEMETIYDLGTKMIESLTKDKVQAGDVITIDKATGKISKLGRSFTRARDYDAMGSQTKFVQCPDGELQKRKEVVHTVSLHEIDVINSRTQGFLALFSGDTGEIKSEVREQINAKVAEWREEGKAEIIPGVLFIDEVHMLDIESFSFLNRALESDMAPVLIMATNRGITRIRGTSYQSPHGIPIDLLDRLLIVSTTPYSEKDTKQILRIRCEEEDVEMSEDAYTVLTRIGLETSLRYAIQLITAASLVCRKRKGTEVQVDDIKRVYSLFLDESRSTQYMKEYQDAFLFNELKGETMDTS
T1 sequence (Q9Y265 whole entry): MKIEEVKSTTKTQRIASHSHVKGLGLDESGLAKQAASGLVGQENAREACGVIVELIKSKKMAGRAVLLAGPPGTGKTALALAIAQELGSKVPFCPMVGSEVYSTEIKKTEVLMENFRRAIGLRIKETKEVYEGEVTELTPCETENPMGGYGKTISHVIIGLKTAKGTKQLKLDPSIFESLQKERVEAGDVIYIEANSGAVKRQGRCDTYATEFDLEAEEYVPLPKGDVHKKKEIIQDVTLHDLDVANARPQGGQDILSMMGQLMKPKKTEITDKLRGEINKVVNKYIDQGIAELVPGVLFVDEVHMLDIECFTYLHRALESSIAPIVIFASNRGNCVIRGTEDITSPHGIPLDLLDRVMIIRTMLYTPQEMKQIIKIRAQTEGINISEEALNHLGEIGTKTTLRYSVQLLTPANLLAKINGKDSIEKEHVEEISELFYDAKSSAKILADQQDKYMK

SMILES | IC50 (TIP48/TIP49 complex) [nM] | GI50 [1] [nM]
COCc1c(NC(=O)CC(C)(C)CNC(=O)c2cc(Cl)cc3cc(C)oc23)c(=O)n(-c2ccccc2)n1C [Example 120, 5-Chloro-N-(4-{[5-(methoxymethyl)-1-methyl-3-oxo-2-phenyl-2,3-dihydro-1H-pyrazol-4-yl]amino}-2,2-dimethyl-4-oxobutyl)-2-methylbenzofuran-7-carboxamide] | 24 | 51
COCc1c(NC(=O)CC(C)(C)CNC(=O)c2cc(Cl)cc3c2OC(C)(C)C3)c(=O)n(-c2ccccc2)n1C [Example 121, 5-Chloro-N-(4-{[5-(methoxymethyl)-1-methyl-3-oxo-2-phenyl-2,3-dihydro-1H-pyrazol-4-yl]amino}-2,2-dimethyl-4-oxobutyl)-2,2-dimethyl-3H-benzofuran-7-carboxamide] | 61 | 140
COc1ccc(Cl)cc1NC(=O)CC(C)(C)CC(=O)Nc1c(C(C)C)n(C)n(-c2ccccc2)c1=O [Example 128, N-(5-Chloro-2-methoxyphenyl)-N′-(5-isopropyl-1-methyl-3-oxo-2-phenyl-2,3-dihydro-1H-pyrazol-4-yl)-3,3-dimethylpentanediamide] | 190 | 590
COc1ccc(Cl)cc1C(=O)NCC(C)(C)CC(=O)Nc1c(COC2CN(C)C2)n(C)n(-c2ccccc2)c1=O [Example 134] | 220 | 800
CCOc1ccc(Cl)cc1C(=O)NCC(C)(C)CC(=O)Nc1c(COc2cccnc2)n(C)n(-c2ccccc2)c1=O [Example 135, 5-Chloro-N-(2,2-dimethyl-4-{[1-methyl-3-oxo-2-phenyl-5-(3-pyridyloxymethyl)pyrazol-4-yl]amino}-4-oxobutyl)-2-ethoxybenzamide] | 100 | 120
COc1ccc(Cl)cc1NC(=O)CC(C)(C)CC(=O)Nc1cn(C)n(-c2ccccc2)c1=O [Example 136, N-(5-Chloro-2-methoxyphenyl)-3,3-dimethyl-N′-(1-methyl-3-oxo-2-phenyl-2,3-dihydro-1H-pyrazol-4-yl)pentanediamide] | 310 | 1700
CCOc1ccc(Cl)cc1C(=O)NCC(C)(C)CC(=O)Nc1c(C)n(CC)n(-c2ccccc2)c1=O [Example 137, 5-Chloro-2-ethoxy-N-{4-[(1-ethyl-5-methyl-3-oxo-2-phenyl-2,3-dihydro-1H-pyrazol-4-yl)amino]-2,2-dimethyl-4-oxobutyl}benzamide] | 38 | 48
CCCn1c(C)c(NC(=O)CC(C)(C)CC(=O)Nc2cc(Cl)c(F)cc2OC)c(=O)n1-c1ccccc1 [Example 138, N-(5-Chloro-4-fluoro-2-methoxyphenyl)-3,3-dimethyl-N′-(3-methyl-5-oxo-1-phenyl-2-propylpyrazol-4-yl)pentanediamide] | 180 | 330
Cc1c(NC(=O)CC(C)(C)CNC(=O)c2cc(Cl)cc3c2OC(C)(C)C3)c(=O)n(-c2ccccc2)n1CCO [Example 139, 5-Chloro-N-(4-{[1-(2-hydroxyethyl)-5-methyl-3-oxo-2-phenyl-2,3-dihydro-1H-pyrazol-4-yl]amino}-2,2-dimethyl-4-oxobutyl)-2,2-dimethyl-3H-benzofuran-7-carboxamide] | 25 | 65
CCOc1ncc(Cl)cc1C(=O)NCC(C)(C)CC(=O)Nc1c(C)n(CCN2CCC2)n(-c2ccccc2)c1=O [Example 140, N-[4-({1-[2-(Azetidin-1-yl)ethyl]-5-methyl-3-oxo-2-phenyl-2,3-dihydro-1H-pyrazol-4-yl}amino)-2,2-dimethyl-4-oxobutyl]-5-chloro-2-ethoxypyridine-3-carboxamide] | 250 | 240
CCOc1ncc(Cl)cc1C(=O)NCC(C)(C)CC(=O)Nc1c(C)n(CCN(C)C)n(-c2ccccc2)c1=O [Example 141, 5-Chloro-N-[4-({1-[2-(dimethylamino)ethyl]-5-methyl-3-oxo-2-phenyl-2,3-dihydro-1H-pyrazol-4-yl}amino)-2,2-dimethyl-4-oxobutyl]-2-ethoxypyridine-3-carboxamide] | 160 | 230
CCOc1ncc(Cl)cc1C(=O)NCC(C)(C)CC(=O)Nc1c(C)n(CCN2CCOCC2)n(-c2ccccc2)c1=O [Example 142, 5-Chloro-N-(2,2-dimethyl-4-{[5-methyl-1-(2-morpholinoethyl)-3-oxo-2-phenyl-2,3-dihydro-1H-pyrazol-4-yl]amino}-4-oxobutyl)-2-ethoxypyridine-3-carboxamide] | 61 | 180
C=Cn1c(C)c(NC(=O)CC(C)(C)CC(=O)Nc2cc(Cl)c(F)cc2OC)c(=O)n1-c1ccccc1 [Example 143, N-(5-Chloro-4-fluoro-2-methoxyphenyl)-3,3-dimethyl-N′-(3-methyl-5-oxo-1-phenyl-2-vinylpyrazol-4-yl)pentanediamide] | 260 | 1200
COc1cc(F)c(Cl)cc1NC(=O)CC(C)(C)CC(=O)Nc1c(C)[nH]n(-c2ccccc2)c1=O [Example 144, N-(5-Chloro-4-fluoro-2-methoxyphenyl)-3,3-dimethyl-N′-(5-methyl-3-oxo-2-phenyl-1H-pyrazol-4-yl)pentanediamide] | 1500 | 11000
COc1ccc(Cl)cc1C(=O)NCC(C)(C)CC(=O)Nc1c(C)n(C)n(-c2cccc(C)c2)c1=O [Example 145, 5-Chloro-N-(4-{[1,5-dimethyl-2-(m-toluyl)-3-oxopyrazol-4-yl]amino}-2,2-dimethyl-4-oxobutyl)-2-methoxybenzamide] | 42 | 770
Cc1c(NC(=O)CC(C)(C)CC(=O)Nc2cc(Cl)ccc2OC(C)C)c(=O)n(-c2cccc(C(F)(F)F)c2)n1C [Example 147, N-(5-Chloro-2-isopropoxy-phenyl)-N′-[1,5-dimethyl-3-oxo-2-[3-(trifluoromethyl)phenyl]pyrazol-4-yl]-3,3-dimethylpentanediamide] | 81 | 40
CCOc1ccc(Cl)cc1C(=O)NCC(C)(C)CC(=O)Nc1c(C)n(C)n(-c2ccccn2)c1=O [Example 149, 5-Chloro-N-(4-{[1,5-dimethyl-3-oxo-2-(2-pyridyl)pyrazol-4-yl]amino}-2,2-dimethyl-4-oxobutyl)-2-ethoxybenzamide] | 100 | 190
CCOc1ncc(Cl)cc1C(=O)NCC(C)(C)CC(=O)Nc1c(C)n(C)n(-c2ccccn2)c1=O [Example 150, 5-Chloro-N-(4-{[1,5-dimethyl-3-oxo-2-(2-pyridyl)-2,3-dihydro-1H-pyrazol-4-yl]amino}-2,2-dimethyl-4-oxobutyl)-2-ethoxypyridine-3-carboxamide] | 110 | 350
Cc1cc2cc(Cl)cc(C(=O)NCC(C)(C)CC(=O)Nc3c(C)n(C)n(-c4ccccn4)c3=O)c2o1 [Example 151, 5-Chloro-N-(4-{[1,5-dimethyl-3-oxo-2-(2-pyridyl)-2,3-dihydro-1H-pyrazol-4-yl]amino}-2,2-dimethyl-4-oxobutyl)-2-methylbenzofuran-7-carboxamide] | 40 | 130
CCOc1ccc(Cl)cc1C(=O)NCC(C)(C)CC(=O)Nc1c(C)n(C)n(-c2cccc(C)n2)c1=O [Example 152, 5-Chloro-N-(4-{[1,5-dimethyl-2-(6-methyl-2-pyridyl)-3-oxopyrazol-4-yl]amino}-2,2-dimethyl-4-oxobutyl)-2-ethoxybenzamide] | 57 | 81
CCOc1ncc(Cl)cc1C(=O)NCC(C)(C)CC(=O)Nc1c(C)n(C)n(-c2cccc(C)n2)c1=O [Example 153, 5-Chloro-N-(4-{[1,5-dimethyl-2-(6-methyl-2-pyridyl)-3-oxo-2,3-dihydro-1H-pyrazol-4-yl]amino}-2,2-dimethyl-4-oxobutyl)-2-ethoxypyridine-3-carboxamide] | 98 | 210
Cc1cccc(-n2c(=O)c(NC(=O)CC(C)(C)CC(=O)Nc3cc(Cl)ccc3OC(F)(F)F)c(C)n2C)n1 [Example 154, N-[5-Chloro-2-(trifluoromethoxy)phenyl]-N′-[1,5-dimethyl-2-(6-methyl-2-pyridyl)-3-oxo-2,3-dihydro-1H-pyrazol-4-yl]-3,3-dimethylpentanediamide] | 82 | 110
